Reference: ChEMBL document CHEMBL1201862, “PubChem BioAssay data set” (2004)
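Tested at 5 concentrations; 48 h exposure; 96-well plates; endpoints linearly interpolated, else capped at highest concentration. Here, GI50 denotes the concentration required for 50% inhibition of growth.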 Calls of active or inactive are those of the source. Cut-off read from the data, not from the text of the source: active = GI50 up to about 1.1 µM and inactive = higher.

Tests used:
Assay in all cases: inhibition of tumour cell growth, NCI panel, 48 h
K562 = tested on: K562
MDA-MB-231 = tested on: MDA-MB-231
OVCAR-3 = tested on: OVCAR-3
PC-3 = tested on: PC-3
LOX IMVI = tested on: LOX IMVI
Malme-3M = tested on: Malme-3M
A549 = tested on: A549
HOP-92 = tested on: HOP-92
SF-268 = tested on: SF-268
NCI/ADR-RES = tested on: NCI/ADR-RES
RXF 393 = tested on: RXF 393
COLO 205 = tested on: COLO 205
CAKI-1 = tested on: CAKI-1
RPMI-8226 = tested on: RPMI-8226
SF-295 = tested on: SF-295
NCI-H23 = tested on: NCI-H23
HCT-116 = tested on: HCT-116
ACHN = tested on: ACHN
SN12C = tested on: SN12C
SNB-19 = tested on: SNB-19
BT-549 = tested on: BT-549
DU-145 = tested on: DU-145
T47D = tested on: T47D
M14 = tested on: M14
MDA-MB-435 = tested on: MDA-MB-435
HOP-62 = tested on: HOP-62
U-251 = tested on: U-251
SK-MEL-5 = tested on: SK-MEL-5
HCT-15 = tested on: HCT-15
TK-10 = tested on: TK-10
OVCAR-5 = tested on: OVCAR-5
OVCAR-8 = tested on: OVCAR-8
UACC-257 = tested on: UACC-257
MDA-N = tested on: MDA-N
SR = tested on: SR
SK-OV-3 = tested on: SK-OV-3
HL-60 = tested on: HL-60
OVCAR-4 = tested on: OVCAR-4
KM12 = tested on: KM12
NCI-H226 = tested on: NCI-H226
SF-539 = tested on: SF-539
HCC 2998 = tested on: HCC 2998
HT-29 = tested on: HT-29
SNB-75 = tested on: SNB-75
SK-MEL-28 = tested on: SK-MEL-28
CCRF-CEM = tested on: CCRF-CEM
786-0 = tested on: 786-0
EKVX = tested on: EKVX
A498 = tested on: A498
MOLT-4 = tested on: MOLT-4
MCF7 = tested on: MCF7
NCI-H460 = tested on: NCI-H460
IGROV-1 = tested on: IGROV-1
NCI-H522 = tested on: NCI-H522
SK-MEL-2 = tested on: SK-MEL-2
UO-31 = tested on: UO-31
UACC-62 = tested on: UACC-62
Hs-578T = tested on: Hs-578T
SW-620 = tested on: SW-620

Measured: GI50

C=C1CC(C)(c2ccc(Nc3nc4ccccc4c4occc34)cc2)OC1=O (centres undefined)
active: UACC-257 0.0186 µM | NCI-H226 < 0.01 µM | CCRF-CEM 1.12 µM
1.94 µM: HCT-15
inactive: K562 4.71 µM | MDA-MB-231 1.75 µM | OVCAR-3 3.74 µM | PC-3 4.36 µM | LOX IMVI 1.95 µM | Malme-3M 17.2 µM | A549 4.52 µM | HOP-92 1.95 µM | SF-268 2.93 µM | NCI/ADR-RES 4.44 µM | RXF 393 2.08 µM | COLO 205 3.59 µM | CAKI-1 15.8 µM | RPMI-8226 1.69 µM | SF-295 12.8 µM | NCI-H23 1.22 µM | HCT-116 1.34 µM | ACHN 4.26 µM | SN12C 1.93 µM | SNB-19 7.45 µM | BT-549 2.37 µM | DU-145 8.13 µM | T47D 3.03 µM | M14 2 µM | MDA-MB-435 1.91 µM | HOP-62 12.5 µM | U-251 5.33 µM | SK-MEL-5 5.09 µM | TK-10 4.86 µM | OVCAR-5 14.1 µM | OVCAR-8 2.66 µM | MDA-N 3.29 µM | SR 1.63 µM | SK-OV-3 10.8 µM | HL-60 2.07 µM | OVCAR-4 1.77 µM | KM12 5.97 µM | SF-539 2 µM | HCC 2998 2.32 µM | HT-29 3.61 µM | SNB-75 1.92 µM | SK-MEL-28 13.9 µM | 786-0 2.16 µM | EKVX 12.1 µM | A498 18.9 µM | MOLT-4 1.82 µM | MCF7 3.32 µM | NCI-H460 14.7 µM

O=C1NC(=O)C(C(CC(=O)c2ccc(Cl)cc2)c2ccc(Cl)cc2)C(=O)N1 (centres undefined)
active: Malme-3M 0.225 µM
inactive: K562 > 100 µM | MDA-MB-231 > 100 µM | IGROV-1 > 100 µM | OVCAR-3 60.4 µM | PC-3 > 100 µM | LOX IMVI 54 µM | A549 > 100 µM | HOP-92 40.4 µM | SF-268 36.2 µM | RPMI-8226 33.7 µM | NCI-H522 > 100 µM | SF-295 > 100 µM | NCI-H23 > 100 µM | HCT-116 34 µM | ACHN > 100 µM | SN12C > 100 µM | SNB-19 > 100 µM | BT-549 > 100 µM | DU-145 > 100 µM | SK-MEL-2 > 100 µM | M14 > 100 µM | MDA-MB-435 89.1 µM | HOP-62 > 100 µM | U-251 > 100 µM | SK-MEL-5 > 100 µM | UO-31 > 100 µM | OVCAR-5 > 100 µM | UACC-62 > 100 µM | OVCAR-8 > 100 µM | UACC-257 > 100 µM | MDA-N 92 µM | SR 35.2 µM | Hs-578T > 100 µM | HL-60 > 100 µM | OVCAR-4 > 100 µM | KM12 37.8 µM | NCI-H226 > 100 µM | SF-539 18 µM | HCC 2998 6.73 µM | HT-29 > 100 µM | SNB-75 > 100 µM | SK-MEL-28 > 100 µM | CCRF-CEM 42.2 µM | 786-0 > 100 µM | EKVX 17.1 µM | A498 > 100 µM | MOLT-4 74 µM | SW-620 > 100 µM | MCF7 17.2 µM | NCI-H460 > 100 µM
> 100 µM: HCT-15
